Here are results for 17 molecules from US7902354B2, “Lapachone compounds and methods of use thereof” (ArQule, Inc., priority 2006, dated 2011).

Assay type in all cases: cell-based
Experiment [1] relates to A549 human lung carcinoma cells. The experiment is described as follows: MTS cell viability assay, A549 human lung carcinoma cells. Particulars: read-out: IC50 Values, Cancerous Cells, Lung A549. On the technique in general: Tetrazolium assays rely on reduction of a dye to a coloured formazan, in cell work by metabolically active cells.
The test system of experiment [2] is DLD-1 human colon carcinoma cells. The experiment is described as follows: MTS cell viability assay, DLD-1 human colon carcinoma cells. Particulars: read-out: IC50 Values, Cancerous Cells, Colon DLD-1.
Experiment [3] concerns DU-145 human prostate carcinoma cells. The experiment is described as follows: MTS cell viability assay, DU-145 human prostate carcinoma cells. As to conditions: read-out: IC50 Values, Cancerous Cells, Prostate DU-145.
Experiment [4] has as its system K-562 human leukemia cells. As to the kind of experiment: MTS cell viability assay, K-562 human leukemia cells. As to conditions: read-out: IC50 Values, Cancerous Cells, Leukemia K-562.
Experiment [5] concerns PACA-2 human pancreatic carcinoma cells. As to the kind of experiment: MTS cell viability assay, PACA-2 human pancreatic carcinoma cells. As to conditions: read-out: IC50 Values, Cancerous Cells, Pancreas PACA-2.
The subject of experiment [6] is NCM-460 normal colon epithelial cells. The experiment is described as follows: MTS cell viability assay, NCM-460 normal colon epithelial cells. Particulars: for IC50: Homo sapiens, read-out: IC50 Values, Normal Cells, Colon NCM-460.
The mark [7] stands for this setting: A549, 4 h compound incubation, MTS.
Where [8] appears, read: DLD-1, 4 h compound incubation, MTS.
The mark [9] stands for this setting: DU-145, 4 h compound incubation, MTS.
The mark [10] stands for this setting: K562, K-562, 4 h compound incubation, MTS.
Where [11] appears, read: PACA-2, 4 h compound incubation, MTS.
[12] abbreviates: NCM460, NCM-460, 4 h compound incubation, MTS.

Where two headings read alike, the source gives them in different places.

Usually IC50 stands for the concentration that inhibits the measured activity by half.

Turning to `CC(C)COCC(O)CN1CCC2(CC1)CSC1=C(O2)c2ccccc2C(=O)C1=O` (stereo not shown) [Compound 174, 1′-(2-hydroxy-3-isobutoxypropyl)spiro[naphtho[1,2-b][1,4]oxathiine-2,4′-piperidine]-5,6-dione], the IC50 turned out to be 6.29 µM in experiment [1] (setting [7]); 1.3 µM in experiment [2] (setting [8]); 1.55 µM in experiment [3] (setting [9]); 1.61 µM in experiment [4] (setting [10]); 1.25 µM in experiment [5] (setting [11]); 3.2 µM in experiment [6] (setting [12]). In addition, the “Fold Selectivity (NCM-460/DLD1)” value in experiment [6] (ratio of IC50 NCM-460 / DLD1) is given as 2.5.

As for `O=C1C(=O)c2ccccc2C2=C1SCC1(CCN(C(=O)c3ccncc3)CC1)O2` [Compound 57, 1′-isonicotinoylspiro[naphtho[1,2-b][1,4]oxathiine-2,4′-piperidine]-5,6-dione], the IC50 was 24.8 µM in experiment [1] (setting [7]); 4.29 µM in experiment [2] (setting [8]); 12.2 µM in experiment [3] (setting [9]); 4.37 µM in experiment [4] (setting [10]); 5.36 µM in experiment [5] (setting [11]); 9.91 µM in experiment [6] (setting [12]). Besides, the “Fold Selectivity (NCM-460/DLD1)” value in experiment [6] (ratio of IC50 NCM-460 / DLD1) stood at 2.3.

Consider `O=C1C(=O)c2ccccc2C2=C1SCC1(CCN(CC3CCCCC3)CC1)O2` [Compound 136, 1′-(cyclohexylmethyl)spiro[naphtho[1,2-b][1,4]oxathiine-2,4′-piperidine]-5,6-dione], for which the IC50 amounted to 9.6 µM in experiment [1] (setting [7]); 2.95 µM in experiment [2] (setting [8]); 4.32 µM in experiment [3] (setting [9]); 4.34 µM in experiment [4] (setting [10]); 4.13 µM in experiment [5] (setting [11]); 8.7 µM in experiment [6] (setting [12]). In addition, in experiment [6] (ratio of IC50 NCM-460 / DLD1), the “Fold Selectivity (NCM-460/DLD1)” value was determined as 2.9.

With `O=C(O)CSCC(=O)N1CCC2(CC1)CSC1=C(O2)c2ccccc2C(=O)C1=O` [Compound 234, {[2-(5,6-dioxo-5,6-dihydro-1′H-spiro[naphtho[1,2-b][1,4]oxathiine-2,4′-piperidine]-1′-yl)-2-oxoethyl]thio}acetic acid], the IC50 in experiment [1] (setting [7]) was above 100 µM; in experiment [2] (setting [8]) it was above 100 µM; in experiment [3] (setting [9]), above 100 µM; in experiment [4] (setting [10]) it was above 100 µM; in experiment [5] (setting [11]), 55.6 µM; in experiment [6] (setting [12]) it was above 100 µM.

Take `Cc1nn(C)c(Cl)c1S(=O)(=O)N1CCC2(CC1)CSC1=C(O2)c2ccccc2C(=O)C1=O` [Compound 81, 1′-[(5-chloro-1,3-dimethyl-1H-pyrazol-4-yl)sulfonyl]spiro[naphtho[1,2-b][1,4]oxathiine-2,4′-piperidine]-5,6-dione]: the IC50 is above 100 µM in experiment [1] (setting [7]); 12.3 µM in experiment [2] (setting [8]); 13.7 µM in experiment [3] (setting [9]); 12.3 µM in experiment [4] (setting [10]); 12.1 µM in experiment [5] (setting [11]); 30.2 µM in experiment [6] (setting [12]). Further, the “Fold Selectivity (NCM-460/DLD1)” value in experiment [6] (ratio of IC50 NCM-460 / DLD1) is 2.5.

Take `O=C1C(=O)c2ccccc2C2=C1SCC1(CCN(C(=O)Nc3cccc(C(F)(F)F)c3)CC1)O2` [Compound 86, 5,6-dioxo-N-[3-(trifluoromethyl)phenyl]-5,6-dihydro-1′H-spiro[naphtho[1,2-b][1,4]oxathiine-2,4′-piperidine]-1′-carboxamide]: the IC50 in experiment [1] (setting [7]) turned out to be 3.84 µM; in experiment [2] (setting [8]) it was 1.48 µM; in experiment [3] (setting [9]), 1.03 µM; in experiment [4] (setting [10]), 2.17 µM; in experiment [5] (setting [11]), 1.33 µM; in experiment [6] (setting [12]) it was 10.1 µM. Moreover, the “Fold Selectivity (NCM-460/DLD1)” value in experiment [6] (ratio of IC50 NCM-460 / DLD1) is 6.8.

In the case of `Cc1cc(C(=O)N2CCC3(CC2)CSC2=C(O3)c3ccccc3C(=O)C2=O)nn1C` [Compound 45, 1′-[(1,5-dimethyl-1H-pyrazol-3-yl)carbonyl]spiro[naphtho[1,2-b][1,4]oxathiine-2,4′-piperidine]-5,6-dione], the IC50 in experiment [1] (setting [7]) was 19.7 µM; in experiment [2] (setting [8]), 4 µM; in experiment [3] (setting [9]), 4.3 µM; in experiment [4] (setting [10]), 3.95 µM; in experiment [5] (setting [11]), 4.49 µM; in experiment [6] (setting [12]), 9.84 µM. Moreover, the “Fold Selectivity (NCM-460/DLD1)” value in experiment [6] (ratio of IC50 NCM-460 / DLD1) came out at 2.5.

As for `Cc1ccc(NC(=O)N2CCC3(CC2)CSC2=C(O3)c3ccccc3C(=O)C2=O)cn1` [Compound 91, N-(6-methylpyridin-3-yl)-5,6-dioxo-5,6-dihydro-1′H-spiro[naphtho[1,2-b][1,4]oxathiine-2,4′-piperidine]-1′-carboxamide], the IC50 in experiment [1] (setting [7]) was found to be 10.2 µM; in experiment [2] (setting [8]), 1.6 µM; in experiment [3] (setting [9]), 2.87 µM; in experiment [4] (setting [10]), 1.45 µM; in experiment [5] (setting [11]) it was 1.35 µM; in experiment [6] (setting [12]), 9 µM. Also, the “Fold Selectivity (NCM-460/DLD1)” value in experiment [6] (ratio of IC50 NCM-460 / DLD1) amounted to 5.6.

Consider `O=C1C(=O)c2ccccc2C2=C1SCC1(CCN(Cc3ccccc3F)CC1)O2` [Compound 118, 1′-(2-fluorobenzyl)spiro[naphtho[1,2-b][1,4]oxathiine-2,4′-piperidine]-5,6-dione], for which the half-inhibitory concentration (IC50) in experiment [1] (setting [7]) is 10.1 µM; in experiment [2] (setting [8]), 2.42 µM; in experiment [3] (setting [9]) it was 5.02 µM; in experiment [4] (setting [10]), 3.85 µM; in experiment [5] (setting [11]), 2.27 µM; in experiment [6] (setting [12]), 8.3 µM. Further, the “Fold Selectivity (NCM-460/DLD1)” value in experiment [6] (ratio of IC50 NCM-460 / DLD1) came out at 3.4.

Consider `O=C1C(=O)c2ccccc2C2=C1SCC1(CCN(S(=O)(=O)c3cccs3)CC1)O2` [Compound 78, 1′-(2-thienylsulfonyl)spiro[naphtho[1,2-b][1,4]oxathiine-2,4′-piperidine]-5,6-dione], for which the IC50 came to 46.7 µM in experiment [1] (setting [7]); 11.1 µM in experiment [2] (setting [8]); 12.7 µM in experiment [3] (setting [9]); 14.7 µM in experiment [4] (setting [10]); 11.1 µM in experiment [5] (setting [11]); 30 µM in experiment [6] (setting [12]). Further, the “Fold Selectivity (NCM-460/DLD1)” value in experiment [6] (ratio of IC50 NCM-460 / DLD1) was determined as 2.7.

For the molecule `O=C1C(=O)c2ccccc2C2=C1SCC1(CCN(C(=O)OCc3ccccc3)CC1)O2` [Compound 98, benzyl 5,6-dioxo-5,6-dihydro-1′H-spiro[naphtho[1,2-b][1,4]oxathiine-2,4′-piperidine]-1′-carboxylate], the IC50 in experiment [1] (setting [7]) was found to be 7.3 µM; in experiment [2] (setting [8]) it was 3.11 µM; in experiment [3] (setting [9]), 3.98 µM; in experiment [4] (setting [10]), 1.43 µM; in experiment [5] (setting [11]) it was 1.61 µM; in experiment [6] (setting [12]) it was 4.78 µM. Also, the “Fold Selectivity (NCM-460/DLD1)” value in experiment [6] (ratio of IC50 NCM-460 / DLD1) is 1.5.

With `N#Cc1ccc(CN2CCC3(CC2)CSC2=C(O3)c3ccccc3C(=O)C2=O)cc1` [Compound 123, 4-[(5,6-dioxo-5,6-dihydro-1′H-spiro[naphtho[1,2-b][1,4]oxathiine-2,4′-piperidine]-1′-yl)methyl]benzonitrile], the IC50 in experiment [1] (setting [7]) is 36.8 µM; in experiment [2] (setting [8]) it was 4.37 µM; in experiment [3] (setting [9]), 4.32 µM; in experiment [4] (setting [10]) it was 4.09 µM; in experiment [5] (setting [11]) it was 4.18 µM; in experiment [6] (setting [12]) it was 9.96 µM. Besides, the “Fold Selectivity (NCM-460/DLD1)” value in experiment [6] (ratio of IC50 NCM-460 / DLD1) was 2.3.

`CC(C(=O)Nc1ccccc1)N1CCC2(CC1)CSC1=C(O2)c2ccccc2C(=O)C1=O` (stereo not shown) [Compound 134, 2-(5,6-dioxo-5,6-dihydro-1′H-spiro[naphtho[1,2-b][1,4]oxathiine-2,4′-piperidin]-1′-yl)-N-phenylpropanamide]: the IC50 in experiment [1] (setting [7]) was determined as 23.3 µM; in experiment [2] (setting [8]), 3.94 µM; in experiment [3] (setting [9]) it was 6.87 µM; in experiment [4] (setting [10]), 7.22 µM; in experiment [5] (setting [11]), 4.43 µM; in experiment [6] (setting [12]) it was 15.6 µM. Further, the “Fold Selectivity (NCM-460/DLD1)” value in experiment [6] (ratio of IC50 NCM-460 / DLD1) was 4.0.

With `O=C1C(=O)c2ccccc2C2=C1SCC1(CCN(C3C=CCCC3)CC1)O2` (stereo not shown) [Compound 135, 1′-cyclohex-2-en-1-ylspiro[naphtho[1,2-b][1,4]oxathiine-2,4′-piperidine]-5,6-dione], the IC50 stood at 19.2 µM in experiment [1] (setting [7]); 4.89 µM in experiment [2] (setting [8]); 5.07 µM in experiment [3] (setting [9]); 4.02 µM in experiment [4] (setting [10]); 7.42 µM in experiment [5] (setting [11]); 8.35 µM in experiment [6] (setting [12]). The “Fold Selectivity (NCM-460/DLD1)” value in experiment [6] (ratio of IC50 NCM-460 / DLD1) is on record as 1.7.

Take `C=CCN1CCC2(CC1)CSC1=C(O2)c2ccccc2C(=O)C1=O` [Compound 131, 1′-allylspiro[naphtho[1,2-b][1,4]oxathiine-2,4′-piperidine]-5,6-dione]: the IC50 came to 6.9 µM in experiment [1] (setting [7]); 1.46 µM in experiment [2] (setting [8]); 2.7 µM in experiment [3] (setting [9]); 1.39 µM in experiment [4] (setting [10]); 1.44 µM in experiment [5] (setting [11]); 2.95 µM in experiment [6] (setting [12]). Further, the “Fold Selectivity (NCM-460/DLD1)” value in experiment [6] (ratio of IC50 NCM-460 / DLD1) turned out to be 2.0.

On to `Cc1ccc(OC(=O)N2CCC3(CC2)CSC2=C(O3)c3ccccc3C(=O)C2=O)cn1` [Compound 111, 6-methyllpyridin-3-yl 5,6-dioxo-5,6-dihydro-1′H-spiro[naphtho[1,2-b][1,4]oxathiine-2,4′-piperidine]-1′-carboxylate], for which the IC50 in experiment [1] (A549, 4 h) was found to be 4.63 µM; in experiment [2] (DLD-1, 4 h), 1.52 µM; in experiment [3] (DU-145, 4 h), 4.1 µM; in experiment [4] (K562, 4 h), 2.01 µM; in experiment [5] (PaCa-2, 4 h) it was 1.7 µM; in experiment [6] (NCM460, 4 h), 4.78 µM. The “Fold Selectivity (NCM-460/DLD1)” value in experiment [6] was determined as 3.1.

`Cc1cccc(CN2CCC3(CC2)CSC2=C(O3)c3ccccc3C(=O)C2=O)c1` [Compound 133, 1′-(3-methylbenzyl)spiro[naphtho[1,2-b][1,4]oxathiine-2,4′-piperidine]-5,6-dione]: the IC50 in experiment [1] (setting [7]) worked out at 73 µM; in experiment [2] (setting [8]), 13.1 µM; in experiment [3] (setting [9]), 12.9 µM; in experiment [4] (setting [10]) it was 15 µM; in experiment [5] (setting [11]), 12.5 µM; in experiment [6] (setting [12]), 29.6 µM. In addition, the “Fold Selectivity (NCM-460/DLD1)” value in experiment [6] (ratio of IC50 NCM-460 / DLD1) was found to be 2.3.
